Experimental data as given in patent US9029337B2, “Modulation of factor 7 expression” (Isis Pharmaceuticals, Inc., priority 2007, dated 2015).
Strand notation (5' to 3'): a small letter for the sugar, then the base; units joined by * are phosphorothioate-linked, units joined directly phosphodiester-linked; [ ] holds rarer units or linkages, { } end groups; capitals alone tell only the bases. e = 2'-O-(2-methoxyethyl) (MOE); [5mC] = 5-methylcytosine; d = 2'-deoxy (DNA)

These substances were tested on human Factor 7 mRNA (assay: Antisense inhibition of human Factor 7 mRNA in HepB3 cells, 50 nM antisense oligonucleotide, lipofectin). Conditions: Table 1, 50 nM, lipofectin, approximately 24 hours, relative to untreated control cells.
Type: cell-based
Method in brief: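 4,000 cells/well; ~24 h exposure; RNA isolated; probe set RTS 2927; normalised to RIBOGREEN® total RNA; % inhibition vs untreated.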
“407661 (antisense eT*eT*eT*eA*e[5mC]*dA*dA*dG*dA*dG*d[5mC]*dA*dG*dG*dG*eT*eG*e[5mC]*e[5mC]*eT) [compound 407661]” was tested, and the “% Inhibition” value was 47%.
With “407599 (antisense e[5mC]*e[5mC]*eT*eG*eG*dG*dA*dG*dA*d[5mC]*d[5mC]*dA*dT*dG*dA*eT*eG*eA*eA*eA) [compound 407599]” the “% Inhibition” value was 73%.
“407937 (antisense eG*eA*eA*eG*eG*dG*dA*dG*dA*dA*dA*dT*dA*d[5mC]*dA*eT*eT*eT*eG*eG) [compound 407937]” was tested, and the “% Inhibition” value was 59%.
“407633 (antisense eG*e[5mC]*eA*eG*eG*d[5mC]*dA*dG*dT*d[5mC]*d[5mC]*dT*dG*dG*dG*eT*e[5mC]*eA*eT*e[5mC]) [compound 407633]” was tested, and the “% Inhibition” value was 71%.
In the case of “407901 (antisense eT*eG*eG*eT*eG*dT*dT*dG*dA*dT*d[5mC]*dA*dG*dG*dG*eT*e[5mC]*e[5mC]*e[5mC]*e[5mC]) [compound 407901]”, the “% Inhibition” value is reported as 89%.
“407946 (antisense eT*e[5mC]*e[5mC]*eA*eA*dA*dA*dA*dT*dG*dA*dA*dT*d[5mC]*dA*eT*eG*eG*eG*e[5mC]) [compound 407946]” was tested, and the “% Inhibition” value was 5%.
With “407646 (antisense eG*eG*eT*eG*eA*dT*dG*d[5mC]*dT*dT*d[5mC]*dT*dG*dA*dA*eT*eT*eG*eT*e[5mC]) [compound 407646]” the “% Inhibition” value was 81%.
For “407595 (antisense eT*e[5mC]*e[5mC]*eT*eG*dA*dG*dG*d[5mC]*d[5mC]*dT*dT*dA*dG*d[5mC]*eG*eA*e[5mC]*e[5mC]*e[5mC]) [compound 407595]”, the “% Inhibition” value was 71%.
For “407667 (antisense eG*eT*eG*eG*e[5mC]*d[5mC]*dA*dT*dG*d[5mC]*d[5mC]*d[5mC]*dT*dG*dG*eG*eT*e[5mC]*eA*eG) [compound 407667]”, the “% Inhibition” value was 71%.
For “407959 (antisense eG*e[5mC]*eA*eG*eG*dG*dA*dT*dG*dG*d[5mC]*dA*dT*d[5mC]*dG*eA*eG*eT*e[5mC]*e[5mC]) [compound 407959]”, the “% Inhibition” value was 0%.
For “407911 (antisense e[5mC]*e[5mC]*e[5mC]*e[5mC]*eT*dT*dG*d[5mC]*dA*dG*dG*dA*dG*dT*d[5mC]*e[5mC]*eT*eT*eG*e[5mC]) [compound 407911]”, the “% Inhibition” value was 74%.
With “407898 (antisense e[5mC]*e[5mC]*eA*eG*e[5mC]*dA*dG*dA*dG*dA*dG*dT*dA*d[5mC]*d[5mC]*e[5mC]*e[5mC]*eT*e[5mC]*eG) [compound 407898]” the “% Inhibition” value was 49%.
With “407655 (antisense eA*eG*eA*eG*eT*dG*d[5mC]*dA*dG*d[5mC]*dT*dT*dG*d[5mC]*d[5mC]*eA*eG*eG*eT*e[5mC]) [compound 407655]” the “% Inhibition” value was 28%.
“407666 (antisense eT*e[5mC]*e[5mC]*e[5mC]*e[5mC]*dA*dG*dG*dA*d[5mC]*dA*dT*d[5mC]*dT*dG*eG*eA*eA*e[5mC]*eT) [compound 407666]” was tested, and the “% Inhibition” value was 52%.

Same assay, conditions: Table 6, 50 nM, lipofectin, approximately 24 hours
With “422263 (antisense eG*eG*dA*dA*dG*dA*dA*dG*dG*dG*dA*d[5mC]*dG*dG*dA*eA*eG*eG*eT*eG) [compound 422263]” the “% Inhibition” value was 19%.
With “422195 (antisense eA*e[5mC]*eT*dG*dA*dG*d[5mC]*dG*d[5mC]*dG*dG*dA*dA*dG*dA*dA*dG*eG*eG*eA) [compound 422195]” the “% Inhibition” value was 37%.
In the case of “422119 (antisense eG*e[5mC]*eG*eG*eA*dA*dG*dA*dA*dG*dG*dG*dA*d[5mC]*dG*eG*eA*eA*eG*eG) [compound 422119]”, the “% Inhibition” value is reported as 39%.
“422127 (antisense eT*eA*e[5mC]*eT*eG*dA*dG*d[5mC]*dG*d[5mC]*dG*dG*dA*dA*dG*eA*eA*eG*eG*eG) [compound 422127]” was tested, and the “% Inhibition” value was 17%.
“422272 (antisense eA*e[5mC]*dT*dG*dA*dG*d[5mC]*dG*d[5mC]*dG*dG*dA*dA*dG*dA*eA*eG*eG*eG*eA) [compound 422272]” was tested, and the “% Inhibition” value was 12%.

Same assay, conditions: Table 13 (microwalk), 50 nM, lipofectin, approximately 24 hours
“422149 (antisense e[5mC]*eA*eT*dG*dG*dT*dG*dA*dT*dG*d[5mC]*dT*dT*d[5mC]*dT*dG*dA*eA*eT*eT) [compound 422149]” was tested, and the “% Inhibition” value was 61%.

Same assay, conditions: gapmers targeted to nucleobases 4868 to 4899 of SEQ ID NO: 1, Table 8
With “422290 (antisense eT*e[5mC]*dT*dG*d[5mC]*dA*dG*dG*dA*dG*d[5mC]*dG*dG*d[5mC]*d[5mC]*eT*eA*eA*eA*eT) [compound 422290]” the “% Inhibition of human Factor 7 mRNA levels” value was 50%.
In the case of “422301 (antisense eG*eG*dA*dG*d[5mC]*d[5mC]*d[5mC]*dG*dA*dG*dT*dT*d[5mC]*dT*dG*e[5mC]*eA*eG*eG*eA) [compound 422301]”, the “% Inhibition of human Factor 7 mRNA levels” value is reported as 67%.
In the case of “422299 (antisense eA*eG*d[5mC]*d[5mC]*d[5mC]*dG*dA*dG*dT*dT*d[5mC]*dT*dG*d[5mC]*dA*eG*eG*eA*eG*e[5mC]) [compound 422299]”, the “% Inhibition of human Factor 7 mRNA levels” value is reported as 64%.

Same assay, conditions: lipofectin, 50 nM antisense oligonucleotide, approximately 24 hours, Factor 7 mRNA by real-time RT-PCR (RTS 2927), relative to untreated control
For “416506 (antisense e[5mC]*eT*eT*eT*eA*dA*dA*dA*dT*d[5mC]*dA*dG*dT*dT*dT*e[5mC]*eA*e[5mC]*eA*e[5mC]) [compound 416506]”, the “% Inhibition” value was 18%.
With “416467 (antisense e[5mC]*e[5mC]*e[5mC]*eT*eG*dG*d[5mC]*d[5mC]*d[5mC]*d[5mC]*dA*dG*d[5mC]*dT*dG*eA*e[5mC]*eG*eA*eT) [compound 416467]” the “% Inhibition” value was 55%.
In the case of “416452 (antisense e[5mC]*e[5mC]*eA*eA*e[5mC]*dA*dA*d[5mC]*dA*dG*dG*dA*d[5mC]*d[5mC]*dT*eG*e[5mC]*e[5mC]*eA*eT) [compound 416452]”, the “% Inhibition” value is reported as 19%.
In the case of “416564 (antisense eG*e[5mC]*e[5mC]*eA*e[5mC]*dT*d[5mC]*dA*d[5mC]*dA*dG*dA*dA*dA*dG*e[5mC]*eT*eG*eG*eA) [compound 416564]”, the “% Inhibition” value is reported as 0%.
In the case of “416485 (antisense eG*eA*eG*e[5mC]*eT*dA*d[5mC]*dA*dG*d[5mC]*d[5mC]*dT*d[5mC]*dA*dA*eA*e[5mC]*eA*eT*e[5mC]) [compound 416485]”, the “% Inhibition” value is reported as 7%.
For “416437 (antisense eA*eG*eG*e[5mC]*eA*d[5mC]*dA*d[5mC]*dT*dG*dG*dT*d[5mC]*d[5mC]*d[5mC]*e[5mC]*eA*eT*e[5mC]*eA) [compound 416437]”, the “% Inhibition” value was 52%.
For “416501 (antisense e[5mC]*eT*eG*e[5mC]*e[5mC]*d[5mC]*dT*dT*d[5mC]*d[5mC]*dA*d[5mC]*d[5mC]*dA*dA*eG*eT*eT*eT*eA) [compound 416501]”, the “% Inhibition” value was 18%.
For “416514 (antisense eG*eT*eA*eT*eT*dT*dT*d[5mC]*dT*dG*dA*dT*dG*dT*dG*eA*eA*eA*eA*e[5mC]) [compound 416514]”, the “% Inhibition” value was 8%.
With “416433 (antisense eA*eG*eA*eA*eA*dT*d[5mC]*d[5mC]*dA*dG*dA*dA*d[5mC]*dA*dG*e[5mC]*eT*eT*e[5mC]*eG) [compound 416433]” the “% Inhibition” value was 0%.
“416424 (antisense eG*eA*eG*eA*e[5mC]*d[5mC]*dA*dT*dG*dA*dT*dG*dA*dA*dA*eT*e[5mC]*eT*e[5mC]*eT) [compound 416424]” was tested, and the “% Inhibition” value was 27%.
With “416481 (antisense eA*eG*eA*eT*eG*dA*dT*dA*dA*dT*dG*dG*dA*dT*dA*eA*eG*eA*eA*e[5mC]) [compound 416481]” the “% Inhibition” value was 15%.
In the case of “416493 (antisense eT*e[5mC]*eT*eT*eG*dG*dG*dT*dG*dT*dG*dG*dA*dT*dG*eT*eA*eA*eA*eT) [compound 416493]”, the “% Inhibition” value is reported as 0%.
“416545 (antisense eA*eG*eA*eA*eA*d[5mC]*dA*dT*d[5mC]*d[5mC]*d[5mC]*dA*dT*dT*dT*eT*e[5mC]*e[5mC]*e[5mC]*eA) [compound 416545]” was tested, and the “% Inhibition” value was 8%.
“416555 (antisense eA*eA*eA*eG*eA*dT*d[5mC]*dA*dG*dG*d[5mC]*dA*dA*dA*dG*eA*eT*e[5mC]*e[5mC]*e[5mC]) [compound 416555]” was tested, and the “% Inhibition” value was 6%.
In the case of “416422 (antisense eA*eG*e[5mC]*eG*eA*d[5mC]*d[5mC]*d[5mC]*d[5mC]*dG*d[5mC]*d[5mC]*dT*dG*d[5mC]*eA*eG*e[5mC]*e[5mC]*eA) [compound 416422]”, the “% Inhibition” value is reported as 8%.

Same assay, conditions: oligonucleotides targeted to nucleobases 11830 to 11869 of SEQ ID NO: 1 (Table 9)
In the case of “422250 (antisense e[5mC]*eT*dG*dG*d[5mC]*dT*dG*dA*dG*dG*dA*dG*dA*d[5mC]*dA*eA*eT*eG*eG*eT) [compound 422250]”, the “% Inhibition (human Factor 7 mRNA levels)” value is reported as 54%.

Same assay, conditions: oligonucleotides targeted to nucleobases 13760 to 13789 of SEQ ID NO: 1 (Table 10)
In the case of “422108 (antisense e[5mC]*e[5mC]*eG*e[5mC]*e[5mC]*dG*dG*d[5mC]*dT*d[5mC]*dT*dG*d[5mC]*dT*d[5mC]*eA*eT*e[5mC]*e[5mC]*e[5mC]) [compound 422108]”, the “% Inhibition (human Factor 7 mRNA levels)” value is reported as 69%.
“422254 (antisense e[5mC]*e[5mC]*d[5mC]*dG*d[5mC]*d[5mC]*dG*dG*d[5mC]*dT*d[5mC]*dT*dG*d[5mC]*dT*e[5mC]*eA*eT*e[5mC]*e[5mC]) [compound 422254]” was tested, and the “% Inhibition (human Factor 7 mRNA levels)” value was 42%.

Same assay, conditions: oligonucleotides targeted to nucleobases 14707 to 14732 of SEQ ID NO: 1 (Table 11)
For “422200 (antisense e[5mC]*e[5mC]*eT*dG*dA*dG*dG*d[5mC]*d[5mC]*dA*dG*d[5mC]*dA*dG*dA*dT*d[5mC]*eA*e[5mC]*eG) [compound 422200]”, the “% Inhibition (human Factor 7 mRNA levels)” value was 58%.
For “422278 (antisense eG*e[5mC]*d[5mC]*dT*dG*dA*dG*dG*d[5mC]*d[5mC]*dA*dG*d[5mC]*dA*dG*eA*eT*e[5mC]*eA*e[5mC]) [compound 422278]”, the “% Inhibition (human Factor 7 mRNA levels)” value was 64%.
